Measurements: the NIST ThermoML archive (doi:10.1021/je300799f)

Test: xn = mol fraction of the nth substance listed
Conditions: 101 kPa, Liquid, Vibrating tube method

CCCC(=O)OCC [ethyl butanoate] + CCCCCCCCC
Conditions	mass density [kg/m3]
288.15 K, x1 = 0.0379	725.8
288.15 K, x1 = 0.1046	733.19
288.15 K, x1 = 0.1502	738.59
288.15 K, x1 = 0.2013	744.84
288.15 K, x1 = 0.2499	751.04
288.15 K, x1 = 0.3047	758.28
288.15 K, x1 = 0.3427	763.5
288.15 K, x1 = 0.3961	771.2
288.15 K, x1 = 0.4355	776.9
288.15 K, x1 = 0.4957	786.1
288.15 K, x1 = 0.5455	794.1
288.15 K, x1 = 0.5857	800.8
288.15 K, x1 = 0.6498	811.8
288.15 K, x1 = 0.7067	822.09
288.15 K, x1 = 0.752	830.65
288.15 K, x1 = 0.8019	840.45
288.15 K, x1 = 0.8502	850.42
288.15 K, x1 = 0.904	861.91
288.15 K, x1 = 0.9569	873.91
288.15 K, x1 = 1	884.01
298.15 K, x1 = 0.0486	719.05
298.15 K, x1 = 0.0906	723.69
298.15 K, x1 = 0.1007	724.84
298.15 K, x1 = 0.1495	730.49
298.15 K, x1 = 0.2442	742.05
298.15 K, x1 = 0.2985	749.08
298.15 K, x1 = 0.3131	750.97
298.15 K, x1 = 0.3518	756.23
298.15 K, x1 = 0.4357	768.18
298.15 K, x1 = 0.5028	778.32
298.15 K, x1 = 0.5511	785.92
298.15 K, x1 = 0.5974	793.57
298.15 K, x1 = 0.703	811.93
298.15 K, x1 = 0.746	819.92
298.15 K, x1 = 0.7879	827.92
298.15 K, x1 = 0.8532	841.01
298.15 K, x1 = 0.9053	852.07
298.15 K, x1 = 1	873.5
308.15 K, x1 = 0.0505	711.25
308.15 K, x1 = 0.0818	714.63
308.15 K, x1 = 0.1528	722.65
308.15 K, x1 = 0.1872	726.67
308.15 K, x1 = 0.2112	729.53
308.15 K, x1 = 0.2818	738.36
308.15 K, x1 = 0.3302	744.66
308.15 K, x1 = 0.3685	749.81
308.15 K, x1 = 0.426	757.85
308.15 K, x1 = 0.4773	765.37
308.15 K, x1 = 0.5187	771.59
308.15 K, x1 = 0.5712	779.88
308.15 K, x1 = 0.642	791.55
308.15 K, x1 = 0.6753	797.37
308.15 K, x1 = 0.726	806.38
308.15 K, x1 = 0.7822	816.86
308.15 K, x1 = 0.833	826.88
308.15 K, x1 = 0.878	836.1
308.15 K, x1 = 0.9384	848.96
308.15 K, x1 = 1	862.85
318.15 K, x1 = 0.0435	702.45
318.15 K, x1 = 0.1009	708.56
318.15 K, x1 = 0.1439	713.46
318.15 K, x1 = 0.2001	719.85
318.15 K, x1 = 0.2489	725.77
318.15 K, x1 = 0.2861	730.43
318.15 K, x1 = 0.355	739.26
318.15 K, x1 = 0.402	745.62
318.15 K, x1 = 0.4556	753.18
318.15 K, x1 = 0.4988	759.53
318.15 K, x1 = 0.547	766.88
318.15 K, x1 = 0.6011	775.45
318.15 K, x1 = 0.656	784.53
318.15 K, x1 = 0.6951	791.27
318.15 K, x1 = 0.7543	801.83
318.15 K, x1 = 0.7999	810.52
318.15 K, x1 = 0.8485	819.97
318.15 K, x1 = 0.8947	829.27
318.15 K, x1 = 0.9545	842.03
318.15 K, x1 = 1	852.26
328.15 K, x1 = 0.0481	695.05
328.15 K, x1 = 0.1134	701.93
328.15 K, x1 = 0.1627	707.35
328.15 K, x1 = 0.2102	712.81
328.15 K, x1 = 0.2589	718.53
328.15 K, x1 = 0.3111	725
328.15 K, x1 = 0.3588	731.17
328.15 K, x1 = 0.402	736.91
328.15 K, x1 = 0.4562	744.36
328.15 K, x1 = 0.5565	759.06
328.15 K, x1 = 0.5996	765.77
328.15 K, x1 = 0.6524	774.29
328.15 K, x1 = 0.7062	783.42
328.15 K, x1 = 0.7544	791.91
328.15 K, x1 = 0.806	801.44
328.15 K, x1 = 0.8433	808.67
328.15 K, x1 = 0.8917	818.28
328.15 K, x1 = 0.9532	831.23
328.15 K, x1 = 1	841.55

CCCC(=O)OC [methyl butanoate] + CCCCCCC
Conditions	mass density [kg/m3]
288.15 K, x1 = 0.0478	695.54
288.15 K, x1 = 0.094	702.79
288.15 K, x1 = 0.1411	710.56
288.15 K, x1 = 0.2025	720.91
288.15 K, x1 = 0.2476	728.91
288.15 K, x1 = 0.2996	738.37
288.15 K, x1 = 0.3531	748.53
288.15 K, x1 = 0.4112	759.9
288.15 K, x1 = 0.4484	767.46
288.15 K, x1 = 0.5023	778.63
288.15 K, x1 = 0.5526	789.52
288.15 K, x1 = 0.5984	799.7
288.15 K, x1 = 0.6471	810.83
288.15 K, x1 = 0.7077	825.2
288.15 K, x1 = 0.7463	834.68
288.15 K, x1 = 0.798	847.73
288.15 K, x1 = 0.8912	872.29
288.15 K, x1 = 0.9493	888.46
288.15 K, x1 = 1	903.31
298.15 K, x1 = 0.0485	686.88
298.15 K, x1 = 0.0876	693
298.15 K, x1 = 0.1389	701.34
298.15 K, x1 = 0.2122	713.65
298.15 K, x1 = 0.2586	721.76
298.15 K, x1 = 0.302	729.67
298.15 K, x1 = 0.3571	739.98
298.15 K, x1 = 0.4019	748.57
298.15 K, x1 = 0.4492	758.07
298.15 K, x1 = 0.5017	768.87
298.15 K, x1 = 0.5573	780.67
298.15 K, x1 = 0.5952	789.01
298.15 K, x1 = 0.6466	800.69
298.15 K, x1 = 0.7063	814.61
298.15 K, x1 = 0.7424	823.41
298.15 K, x1 = 0.7993	837.66
298.15 K, x1 = 0.8623	853.85
298.15 K, x1 = 0.9015	864.37
298.15 K, x1 = 0.9507	878.23
298.15 K, x1 = 1	892.31
308.15 K, x1 = 0.063	680.36
308.15 K, x1 = 0.117	688.78
308.15 K, x1 = 0.187	700.22
308.15 K, x1 = 0.3025	720.34
308.15 K, x1 = 0.417	741.86
308.15 K, x1 = 0.5047	759.48
308.15 K, x1 = 0.5651	772.28
308.15 K, x1 = 0.5933	778.47
308.15 K, x1 = 0.6532	791.9
308.15 K, x1 = 0.7045	803.77
308.15 K, x1 = 0.7487	814.31
308.15 K, x1 = 0.7648	818.37
308.15 K, x1 = 0.789	824.36
308.15 K, x1 = 0.8514	840.37
308.15 K, x1 = 0.8818	848.32
308.15 K, x1 = 0.9257	860.13
308.15 K, x1 = 0.9603	869.83
308.15 K, x1 = 1	881.19
318.15 K, x1 = 0.0768	673.72
318.15 K, x1 = 0.089	675.62
318.15 K, x1 = 0.1535	685.7
318.15 K, x1 = 0.2117	695.29
318.15 K, x1 = 0.2567	702.97
318.15 K, x1 = 0.305	711.44
318.15 K, x1 = 0.3544	720.36
318.15 K, x1 = 0.4042	729.76
318.15 K, x1 = 0.4351	735.72
318.15 K, x1 = 0.5011	748.89
318.15 K, x1 = 0.5487	758.83
318.15 K, x1 = 0.5962	768.97
318.15 K, x1 = 0.6971	791.66
318.15 K, x1 = 0.7469	803.4
318.15 K, x1 = 0.7973	815.75
318.15 K, x1 = 0.8454	827.9
318.15 K, x1 = 0.8948	840.81
318.15 K, x1 = 0.9513	856.25
318.15 K, x1 = 1	870.06
328.15 K, x1 = 0.044	659.99
328.15 K, x1 = 0.0921	667.12
328.15 K, x1 = 0.1388	674.29
328.15 K, x1 = 0.189	682.37
328.15 K, x1 = 0.2611	694.33
328.15 K, x1 = 0.3006	701.19
328.15 K, x1 = 0.4098	721.06
328.15 K, x1 = 0.4532	729.42
328.15 K, x1 = 0.5031	739.32
328.15 K, x1 = 0.5522	749.41
328.15 K, x1 = 0.5979	759.1
328.15 K, x1 = 0.6473	769.85
328.15 K, x1 = 0.706	783.28
328.15 K, x1 = 0.7456	792.62
328.15 K, x1 = 0.7926	803.93
328.15 K, x1 = 0.86	820.85
328.15 K, x1 = 0.9028	832.08
328.15 K, x1 = 0.9508	845.05
328.15 K, x1 = 1	858.8
